Experimental data: the supplement of paper PMC10307832

Columns and labels:
Assay in all cases: relative viability (nuclei count vs DMSO), 5 days (fraction); higher = more cells survive
BEN = test system: BEN
Outline: (§1)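 Nuclei were stained with Hoechst during a one-step fixation (final 0.05% Triton X-100, 1% formaldehyde, 1 ug/ml Hoechst) carried out 5 days after dosing, then counted on 4× images. The cells, lung cancer lines in 1536-well plates, had been dosed by pin tool the day after seeding with one drug alone or a fixed anchor-drug dose plus five library-drug doses (not always all listed) in √10 steps. Relative viability is the nuclei count in treated wells divided by that in vehicle wells, and each value is the median of duplicate plates.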

COR-L23 = test system: COR-L23
Outline: as §1

LK-2 = test system: LK-2
Outline: as §1

NCI-H2087 = test system: NCI-H2087
Outline: as §1

NCI-H1650 = test system: NCI-H1650
Outline: as §1

NCI-H2126 = test system: NCI-H2126
Outline: as §1

NCI-H2347 = test system: NCI-H2347
Outline: as §1

NCI-H460 = test system: NCI-H460
Outline: as §1

LXF-289 = test system: LXF-289
Outline: as §1

NCI-H1651 = test system: NCI-H1651
Outline: as §1

EKVX = test system: EKVX
Outline: as §1

HCC-44 = test system: HCC-44
Outline: as §1

EMC-BAC-2 = test system: EMC-BAC-2
Outline: as §1

NCI-H596 = test system: NCI-H596
Outline: as §1

201T = test system: 201T
Outline: as §1

NCI-H1793 = test system: NCI-H1793
Outline: as §1

HCC-827 = test system: HCC-827
Outline: as §1

NCI-H1915 = test system: NCI-H1915
Outline: as §1

EPLC-272H = test system: EPLC-272H
Outline: as §1

NCI-H358 = test system: NCI-H358
Outline: as §1

SW 1573 = test system: SW 1573
Outline: as §1

A-427 = test system: A-427
Outline: as §1

CCCCCCCCCCCC1=C(O)C(=O)C=C(O)C1=O [Embelin] + CS(=O)(=O)CCNCc1ccc(-c2ccc3ncnc(Nc4ccc(OCc5cccc(F)c5)c(Cl)c4)c3c2)o1 [Lapatinib] (partner 2 µM)
relative viability (BEN; first compound 0.08 µM): 0.697 | relative viability (BEN; first compound 0.8 µM): 0.887 | relative viability (BEN; first compound 2.53 µM): 0.805 | relative viability (BEN; first compound 8 µM): 0.73 | relative viability (COR-L23; first compound 0.08 µM): 0.927 | relative viability (COR-L23; first compound 0.8 µM): 0.966 | relative viability (COR-L23; first compound 2.53 µM): 1.34 | relative viability (COR-L23; first compound 8 µM): 1.09 | relative viability (LK-2; first compound 0.08 µM): 0.906 | relative viability (LK-2; first compound 0.8 µM): 0.991 | relative viability (LK-2; first compound 2.53 µM): 1.24 | relative viability (LK-2; first compound 8 µM): 0.825 | relative viability (NCI-H2087; first compound 0.08 µM): 1.07 | relative viability (NCI-H2087; first compound 0.8 µM): 1.02 | relative viability (NCI-H2087; first compound 2.53 µM): 1.2 | relative viability (NCI-H2087; first compound 8 µM): 1.23 | relative viability (NCI-H1650; first compound 0.08 µM): 0.762 | relative viability (NCI-H1650; first compound 0.8 µM): 0.931 | relative viability (NCI-H1650; first compound 2.53 µM): 0.74 | relative viability (NCI-H1650; first compound 8 µM): 0.712 | relative viability (NCI-H2126; first compound 0.08 µM): 0.742 | relative viability (NCI-H2126; first compound 0.8 µM): 0.791 | relative viability (NCI-H2126; first compound 2.53 µM): 0.83 | relative viability (NCI-H2126; first compound 8 µM): 0.643 | relative viability (NCI-H2347; first compound 0.08 µM): 1.02 | relative viability (NCI-H2347; first compound 0.8 µM): 0.929 | relative viability (NCI-H2347; first compound 2.53 µM): 0.968 | relative viability (NCI-H2347; first compound 8 µM): 0.969 | relative viability (NCI-H460; first compound 0.08 µM): 1.04 | relative viability (NCI-H460; first compound 0.8 µM): 1.1 | relative viability (NCI-H460; first compound 8 µM): 1.1 | relative viability (LXF-289; first compound 0.08 µM): 0.961 | relative viability (LXF-289; first compound 0.8 µM): 0.882 | relative viability (LXF-289; first compound 2.53 µM): 0.978 | relative viability (LXF-289; first compound 8 µM): 0.936 | relative viability (NCI-H1651; first compound 0.08 µM): 0.789 | relative viability (NCI-H1651; first compound 0.8 µM): 0.974 | relative viability (NCI-H1651; first compound 2.53 µM): 0.99 | relative viability (NCI-H1651; first compound 8 µM): 0.824 | relative viability (EKVX; first compound 0.08 µM): 0.197 | relative viability (EKVX; first compound 0.8 µM): 0.528 | relative viability (EKVX; first compound 2.53 µM): 0.215 | relative viability (EKVX; first compound 8 µM): 0.211 | relative viability (HCC-44; first compound 0.08 µM): 1.03 | relative viability (HCC-44; first compound 0.8 µM): 1.02 | relative viability (HCC-44; first compound 2.53 µM): 1.15 | relative viability (HCC-44; first compound 8 µM): 0.908 | relative viability (EMC-BAC-2; first compound 0.08 µM): 0.932 | relative viability (EMC-BAC-2; first compound 0.8 µM): 0.959 | relative viability (EMC-BAC-2; first compound 2.53 µM): 0.926 | relative viability (EMC-BAC-2; first compound 8 µM): 0.817 | relative viability (NCI-H596; first compound 0.08 µM): 1.17 | relative viability (NCI-H596; first compound 0.8 µM): 1.07 | relative viability (NCI-H596; first compound 2.53 µM): 1.12 | relative viability (NCI-H596; first compound 8 µM): 1.17 | relative viability (201T; first compound 0.08 µM): 1.03 | relative viability (201T; first compound 0.8 µM): 1.04 | relative viability (201T; first compound 2.53 µM): 1 | relative viability (201T; first compound 8 µM): 0.99 | relative viability (NCI-H1793; first compound 0.08 µM): 0.68 | relative viability (NCI-H1793; first compound 0.8 µM): 0.833 | relative viability (NCI-H1793; first compound 2.53 µM): 0.801 | relative viability (NCI-H1793; first compound 8 µM): 0.686 | relative viability (HCC-827; first compound 0.08 µM): 0.157 | relative viability (HCC-827; first compound 0.8 µM): 0.176 | relative viability (HCC-827; first compound 2.53 µM): 0.179 | relative viability (HCC-827; first compound 8 µM): 0.197 | relative viability (NCI-H1915; first compound 0.08 µM): 0.96 | relative viability (NCI-H1915; first compound 0.8 µM): 0.984 | relative viability (NCI-H1915; first compound 2.53 µM): 1.08 | relative viability (NCI-H1915; first compound 8 µM): 0.956 | relative viability (EPLC-272H; first compound 0.08 µM): 0.899 | relative viability (EPLC-272H; first compound 0.8 µM): 1.38 | relative viability (EPLC-272H; first compound 2.53 µM): 1.01 | relative viability (EPLC-272H; first compound 8 µM): 0.816 | relative viability (NCI-H358; first compound 0.08 µM): 0.452 | relative viability (NCI-H358; first compound 0.8 µM): 0.525 | relative viability (NCI-H358; first compound 2.53 µM): 0.47 | relative viability (NCI-H358; first compound 8 µM): 0.384 | relative viability (SW 1573; first compound 0.08 µM): 1.04 | relative viability (SW 1573; first compound 0.8 µM): 1.03 | relative viability (SW 1573; first compound 2.53 µM): 1.33 | relative viability (SW 1573; first compound 8 µM): 1.09 | relative viability (A-427; first compound 0.08 µM): 1.07 | relative viability (A-427; first compound 0.8 µM): 1.05 | relative viability (A-427; first compound 2.53 µM): 1.2 | relative viability (A-427; first compound 8 µM): 0.947
